Patent US9328083B2, “2-aminated methylene or 2-esterified methylene tanshinone derivatives, and preparation method and application thereof” (HANGZHOU BENSHENG PHARMACEUTICAL CO., LTD., priority 2011, dated 2016)

How the values were obtained:
[1] = system: H9 (acute lymphoblastic leukemia, ALL); assay: MTT growth inhibition of leukemia cells, 72 h; type: cell-based, human; settings: Homo sapiens, H9, 72 h; for IC50: read-out: IC50; for IC90: read-out: IC90
Source text: (§1) Leukemia cell lines: leukemia cell lines: K562/adr (drug-resistant, chronic myeloid leukemia, CML), NB4 (acute promyelocytic leukemia, AML), Kasumi-1 (acute myeloid leukemia M2 type, AML-M2), and Jurkat (acute lymphoblastic leukemia, ALL), all of which are donated by Cancer Research Institute of Zhejiang University, China; and H9 (acute lymphoblastic leukemia, ALL), which is purchased from China Center for Type Culture Collection (CCTCC).
(§2) The standard sample of tanshinone I (TA) and the 2-aminated methylene or 2-esterified methylene tanshinone I derivatives of the present invention are sufficiently dissolved with dimethylsulfoxide to produce a stock solution of 10 mg/mL, which is refrigerated at 4° C. and stored in dark, and is diluted with a cell culture medium to the desired concentration prior to experimentation.
(§3) Obtaining 6000 well-growing leukemia cells and inoculating them into wells of a 96-well cell culture plate. The culture medium is the RPMI-1640 cell culture medium containing 10% fetal bovine serum. After adding on the second day the 2-aminated methylene or 2-esterified methylene tanshinone I derivatives of different concentrations and mixing uniformly, placing the plate in a carbon dioxide cell incubator (5% CO2) at 37° C. and incubated for 72 hours. Then the viable cell concentration is determined by MTT method.

[2] = system: Jurkat (acute lymphoblastic leukemia, ALL); assay: MTT growth inhibition of leukemia cells, 72 h; type: cell-based, human; settings: Homo sapiens, 72 h; for IC50: read-out: IC50; for IC90: read-out: IC90
Source text: as §1, §2, §3

[3] = system: K562/adr (drug-resistant, chronic myeloid leukemia, CML); assay: MTT growth inhibition of leukemia cells, 72 h; type: cell-based, human; settings: Homo sapiens, K562/Adr; for IC50: read-out: IC50; for IC90: read-out: IC90
Source text: as §1, §2, §3

[4] = system: Kasumi-1 (acute myeloid leukemia M2 type, AML-M2); assay: MTT growth inhibition of leukemia cells, 72 h; type: cell-based, human; settings: Homo sapiens, Kasumi-1, 72 h; for IC50: read-out: IC50; for IC90: read-out: IC90
Source text: as §1, §2, §3

[5] = system: NB4 (acute promyelocytic leukemia, AML); assay: MTT growth inhibition of leukemia cells, 72 h; type: cell-based, human; settings: Homo sapiens, NB4, 72 h; for IC50: read-out: IC50; for IC90: read-out: IC90
Source text: as §1, §2, §3

[6] = system: RPMI8226 (multiple myeloma); assay: MTT growth inhibition of multiple myeloma cells, 72 h; type: cell-based, human; settings: Homo sapiens, RPMI 8226, 72 h; for IC50: read-out: IC50; for IC90: read-out: IC90
Protocol: Myeloma cell lines: RPMI8226 (multiple myeloma), purchased from Fuxiang Bio-tech Co. Ltd., Shanghai, China.
as §2
as §3, with “myeloma” for “leukemia”, “cells as above” for “cells”, “1640” for “RPMI-1640”, “adding” for “adding on the second day”

A549 (human lung cancer) = assay: MTT growth inhibition of human solid tumor cells, 72 h; type: cell-based; settings: Homo sapiens, A549, 72 h; for IC50: read-out: IC50; for IC90: read-out: IC90
Protocol: (§4) Hep-2 (laryngeal carcinoma), A549 (human lung cancer), CaES-17 (esophageal cancer cell), PC-3 (prostate cancer), CNE (nasopharyngeal carcinoma cell), and SK-OV-3 (ovarian cancer cell), all of which are purchased from China Center For Type Culture Collection; RKO (human colon adenocarcinoma cell), MGC 803 (human gastric cancer cell), MG63 (osteosarcoma) and U87 MG (malignant glioma cell), all of which are purchased from Fuxiang Bio-tech Co. Ltd., Shanghai, China; PANC-1 (pancreatic cancer), Hep G2 (human liver cancer cell), Becap37 (human breast cancer cell) and Hela (human cervical cancer cell), all of which are donated by Cancer Research Institute of Zhejiang University, China.
as §2
(§5) Obtaining 4000 well-growing human solid tumor cells and inoculating them into wells of a 96-well cell culture plate. The culture medium is DMEM High Glucose cell culture medium containing 10% fetal bovine serum. The plate is placed in a carbon dioxide cell incubator (5% CO2) at 37° C. and incubated for 24 hours. After adding the 2-aminated methylene or 2-esterified methylene tanshinone I derivatives of different concentrations and mixing uniformly, the plate is placed in a carbon dioxide cell incubator (5% CO2) at 37° C. and incubated for 72 hours. Then the viable cell concentration is determined by the MTT method.

[7] = system: Becap37 (human breast cancer cell); assay: as above; type: cell-based; settings: Homo sapiens, Becap-37, 72 h; for IC50: read-out: IC50; for IC90: read-out: IC90
Protocol: as §4, §2, §5

[8] = system: CNE (nasopharyngeal carcinoma cell); assay: as above; type: cell-based; settings: Homo sapiens; for IC50: read-out: IC50; for IC90: read-out: IC90
Protocol: as §4, §2, §5

[9] = system: CaES-17 (esophageal cancer cell); assay: as above; type: cell-based; settings: Homo sapiens, CaEs17, CaEs-17, 72 h; for IC50: read-out: IC50; for IC90: read-out: IC90
Protocol: as §4, §2, §5

[10] = system: Hela (human cervical cancer cell); assay: as above; type: cell-based; settings: Homo sapiens, HeLa, 72 h; for IC50: read-out: IC50; for IC90: read-out: IC90
Protocol: as §4, §2, §5

[11] = system: Hep G2 (human liver cancer cell); assay: as above; type: cell-based; settings: Homo sapiens, HepG2, Hep G2, 72 h; for IC50: read-out: IC50; for IC90: read-out: IC90
Protocol: as §4, §2, §5

[12] = system: Hep-2 (laryngeal carcinoma); assay: as above; type: cell-based; settings: Homo sapiens, HEp-2, 72 h; for IC50: read-out: IC50; for IC90: read-out: IC90
Protocol: as §4, §2, §5

MG63 (osteosarcoma) = assay: as above; type: cell-based; settings: Homo sapiens, MG-63, 72 h; for IC50: read-out: IC50; for IC90: read-out: IC90
Protocol: as §4, §2, §5

[13] = system: MGC 803 (human gastric cancer cell); assay: as above; type: cell-based; settings: Homo sapiens, MGC-803, 72 h; for IC50: read-out: IC50; for IC90: read-out: IC90
Protocol: as §4, §2, §5

[14] = system: PANC-1 (pancreatic cancer); assay: as above; type: cell-based; settings: Homo sapiens, PANC-1, 72 h; for IC50: read-out: IC50; for IC90: read-out: IC90
Protocol: as §4, §2, §5

PC-3 (prostate cancer) = assay: as above; type: cell-based; settings: Homo sapiens, PC-3, 72 h; for IC50: read-out: IC50; for IC90: read-out: IC90
Protocol: as §4, §2, §5

[15] = system: RKO (human colon adenocarcinoma cell); assay: as above; type: cell-based; settings: Homo sapiens; for IC50: read-out: IC50; for IC90: read-out: IC90
Protocol: as §4, §2, §5

[16] = system: SK-OV-3 (ovarian cancer cell); assay: as above; type: cell-based; settings: Homo sapiens, SK-OV-3, 72 h; for IC50: read-out: IC50; for IC90: read-out: IC90
Protocol: as §4, §2, §5

[17] = system: U87 MG (malignant glioma cell); assay: as above; type: cell-based; settings: Homo sapiens, U-87 MG, U87-MG, 72 h; for IC50: read-out: IC50; for IC90: read-out: IC90
Protocol: as §4, §2, §5

Row | IC50 [1] [µg/mL] | IC90 [1] [µg/mL] | IC50 [2] [µg/mL] | IC90 [2] [µg/mL] | IC50 [3] [µg/mL] | IC90 [3] [µg/mL] | IC50 [4] [µg/mL] | IC90 [4] [µg/mL] | IC50 [5] [µg/mL] | IC90 [5] [µg/mL] | IC50 [6] [µg/mL] | IC90 [6] [µg/mL] | IC50 (A549 (human lung cancer)) [µg/mL] | IC90 (A549 (human lung cancer)) [µg/mL] | IC50 [7] [µg/mL] | IC90 [7] [µg/mL] | IC50 [8] [µg/mL] | IC90 [8] [µg/mL] | IC50 [9] [µg/mL] | IC90 [9] [µg/mL] | Compound | further results
1 | 6.25 | 15.9 | 4.79 | > 16 | 11.2 | > 16 | 5.03 | > 16 | 0.99 | 7 | 3.86 | 16 | 8.9 | > 16 | 8.1 | > 16 | 3.87 | > 16 | 8.45 | > 16 | CC[N+](C)(Cc1ccc(F)c(Cl)c1)Cc1oc2c(c1C)C(=O)C(=O)c1c-2ccc2c(C)cccc12 (centres unmarked) [BS-TA-50] | IC50 [10]: 7.78 µg/mL; IC90 [10]: > 16 µg/mL; IC50 [11]: > 16 µg/mL; IC90 [11]: > 16 µg/mL; IC50 [12]: 13.7 µg/mL; IC90 [12]: > 16 µg/mL; IC50 (MG63 (osteosarcoma)): 1.67 µg/mL; IC90 (MG63 (osteosarcoma)): > 16 µg/mL; IC50 [13]: 8.91 µg/mL; IC90 [13]: > 16 µg/mL; IC50 [14]: 4.24 µg/mL; IC90 [14]: > 16 µg/mL; IC50 (PC-3 (prostate cancer)): 10.7 µg/mL; IC90 (PC-3 (prostate cancer)): > 16 µg/mL; IC50 [15]: 2.5 µg/mL; IC90 [15]: > 16 µg/mL; IC50 [16]: > 16 µg/mL; IC90 [16]: > 16 µg/mL; IC50 [17]: 4.67 µg/mL; IC90 [17]: > 16 µg/mL
2 | 1.4 | 4 | 1.28 | 3.99 | 1.36 | 5.12 | 1.61 | 3.86 | 0.9 | 2.98 | 2 | 7.64 | 3.78 | 9.78 | 1.88 | 3.67 | 3.2 | 7.2 | 3.58 | 7.74 | Cc1c(C[N+](C)(CCO)Cc2ccc(F)c(Cl)c2)oc2c1C(=O)C(=O)c1c-2ccc2c(C)cccc12 (centres unmarked) [BS-TA-60] | IC50 [10]: 3.32 µg/mL; IC90 [10]: 7.35 µg/mL; IC50 [11]: 2.5 µg/mL; IC90 [11]: 5.97 µg/mL; IC50 [12]: 1.79 µg/mL; IC90 [12]: 7.41 µg/mL; IC50 (MG63 (osteosarcoma)): 1.24 µg/mL; IC90 (MG63 (osteosarcoma)): 5.23 µg/mL; IC50 [13]: 2.9 µg/mL; IC90 [13]: 5.4 µg/mL; IC50 [14]: 1.74 µg/mL; IC90 [14]: 3.58 µg/mL; IC50 (PC-3 (prostate cancer)): 5.03 µg/mL; IC90 (PC-3 (prostate cancer)): 10.8 µg/mL; IC50 [15]: 0.52 µg/mL; IC90 [15]: 1.88 µg/mL; IC50 [16]: 9.78 µg/mL; IC90 [16]: 22.7 µg/mL; IC50 [17]: 0.36 µg/mL; IC90 [17]: 18.8 µg/mL
